This note sets out measurements from PubChem BioAssay (NCI).

The structures appear in SMILES notation.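 In this assay, cells in 96-well plates receive the compound at five concentrations for 48 hours. Endpoints are linearly interpolated between the surrounding concentrations. GI50: concentration for 50% inhibition of growth. The concentration for full growth arrest is given as TGI.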

Common to all, as to test: NCI anticancer screen, dose series, 48 h
In assay [1] the test system is CAKI-1 renal.
Assay [2] concerns EKVX NSCLC.
Assay [3] deals with HCT-15 colon.
The subject of assay [4] is HL-60(TB) leukemia.
Assay [5] concerns IGROV1 ovarian.
In assay [6] the test system is MOLT-4 leukemia.
In assay [7] the test system is NCI-H23 lung.
Assay [8] concerns PC-3 prostate.
The subject of assay [9] is SF-268 CNS.
In assay [10] the test system is U251 CNS.

`CCOCCc1c(O)nc(SC)[nH]c1=O`: the GI50 in assay [1], in assay [2], in assay [3], in [4], in [5] and in assay [6] was greater than 100 µM throughout. In addition, the GI50 in [7], in [8], in [9] and in [10] was greater than 100 µM in each case. The TGI in [1], in [2], in assay [3], in assay [4], in assay [5] and in [6] was greater than 100 µM in each case. Moreover, the TGI in assay [7], in assay [8], in assay [9] and in assay [10] was greater than 100 µM each time.
Take `O=C1Nc2ccccc2C1(c1ccc(O)c(F)c1)c1ccc(O)c(F)c1`: the GI50 in [1] was 17.6 µM; in assay [2] it was 4.31 µM; in assay [3], 8.34 µM; in assay [4] it was 15 µM; in [5] it was 3.19 µM; in [6], 10.6 µM. Also, the GI50 in [7] is 0.532 µM; in [8], 1.08 µM; in assay [9], 16.1 µM; in [10] it was 14.5 µM. Besides, the TGI stood at 55.4 µM in [1]; 43.5 µM in assay [2]; 34.4 µM in assay [3]; 42.6 µM in assay [4]; 50.6 µM in [5]; 67 µM in assay [6]. Also, the TGI in assay [7] was 25.2 µM; in [8], 6.95 µM; in assay [9], 62.1 µM; in [10], 48.6 µM.
In the case of `COc1ccccc1CNCCCN1C(=O)c2ccc3c4c(ccc(c24)C1=O)C(=O)N(CCCNCCCCNCCCCN)C3=O`, the GI50 in [1] was 3.98 µM; in assay [3], 2.92 µM; in assay [4], 1.28 µM; in [5], 2.8 µM; in assay [6] it was 3.23 µM; in assay [7], 2.43 µM. The GI50 was 2.5 µM in assay [8], 0.903 µM in assay [9] and 1.07 µM in [10]. Besides, the TGI worked out at 46 µM in assay [1]; 22.8 µM in assay [3]; 5.71 µM in assay [4]; 9.17 µM in assay [5]; 19.5 µM in assay [6]; 7.59 µM in assay [7]. Moreover, the TGI was 10.3 µM in [8], 6.99 µM in assay [9] and 3.25 µM in assay [10].
As to `Cn1cc(C2=C(c3c4n(c5ccccc35)CC(CN)C4)C(=O)NC2=O)c2ccccc21` (stereo not given), the GI50 in assay [1] is 3.37 µM; in assay [3], 4.33 µM; in assay [4], 3.35 µM; in assay [5], 3.52 µM; in assay [6], 3.4 µM; in assay [7] it was 4.38 µM. Moreover, the GI50 in [8] was 2.04 µM; in assay [9], 3.94 µM; in [10] it was 2.61 µM. Moreover, the TGI in assay [1] was found to be 9.51 µM; in assay [3], 15.8 µM; in assay [4], 9.91 µM; in [5], 9.08 µM; in assay [6] it was 15 µM; in assay [7], 11.1 µM. Moreover, the TGI in [8] came to 9.01 µM; in [9], 9.57 µM; in assay [10], 5.77 µM.
For the compound `CN(C)CCCNC(=O)c1cc(NC(=O)CCNC(=O)c2ccc3c(c2)C(=O)c2ccccc2C3=O)cn1C`, the GI50 in assay [1] is greater than 100 µM; in assay [2], greater than 100 µM; in [4], greater than 100 µM; in assay [5], greater than 100 µM; in assay [6] it was 37.4 µM; in assay [7] it was greater than 100 µM. Further, the values for the GI50 in [8], in assay [9] and in assay [10] were greater than 100 µM, 71 µM and 27.1 µM, respectively. For the same compound, the TGI in [1], in assay [2], in assay [4], in [5], in assay [6] and in assay [7] was greater than 100 µM each time. The TGI in assay [8], in assay [9] and in [10] was greater than 100 µM each time.
With `CCOC(=O)c1ccc2c(c1)[n+](=O)c(C(=O)c1ccc3ccccc3c1)c(C(F)(F)F)n2[O-]`, the GI50 is 1.42 µM in [1]; 1.56 µM in assay [2]; 1.49 µM in assay [3]; 0.98 µM in assay [4]; 0.361 µM in assay [5]; 0.496 µM in assay [7]. In addition, the GI50 in assay [8] was 0.729 µM; in [9], 1.15 µM; in [10], 1.5 µM. Further, the TGI in [1] is 2.85 µM; in [2], 3.14 µM; in assay [3], 3.3 µM; in assay [4], 2.82 µM; in [5], 1.21 µM; in assay [7] it was 1.79 µM. The TGI is 2 µM in [8], 2.36 µM in assay [9] and 2.83 µM in assay [10].
In the case of `Cc1cc(Cl)ccc1NC(=O)/C(Cl)=C(/Cl)C(=O)O`, the TGI was 37.6 µM in assay [1]; 39.9 µM in [2]; 37.9 µM in assay [3]; greater than 100 µM in [4]; 67.8 µM in assay [7]; 54.5 µM in [8]. The TGI is greater than 100 µM in assay [9] and 38.3 µM in assay [10].
As to `COc1cc(C2c3cc4c(cc3[C@H](NC(=O)c3cccs3)C3COC(=O)[C@H]23)OCO4)cc(OC)c1OC` (stereo not given in full), the TGI in assay [2] is greater than 100 µM; in assay [4], less than 0.0251 µM; in assay [5], greater than 100 µM; in assay [6], 24.5 µM; in [8], 0.0236 µM; in [9] it was greater than 40.8 µM. This compound also displayed a TGI in assay [10] of 0.865 µM.
For the compound `CCCCCCCCCCCCOC1C(CNC(=O)C2OC3OC(C)(C)OC3C2NC(=O)CN2CCN(c3ccccn3)CC2)OC2OC(C)(C)OC21` (stereo not given), the GI50 is 2.27 µM in assay [1]; 1.7 µM in [2]; 1.76 µM in assay [3]; 1.87 µM in assay [5]; 1.86 µM in [6]; 4.16 µM in [7]. Also, the values for the GI50 in [8], in assay [9] and in [10] were 1.75 µM, 2.26 µM and 1.86 µM, respectively. Moreover, the TGI in [1] was found to be 4.59 µM; in assay [2] it was 3.14 µM; in assay [3], 3.31 µM; in assay [5] it was 3.45 µM; in assay [6] it was 4.45 µM; in assay [7], 9.1 µM. In addition, the TGI in assay [8] is 3.24 µM; in assay [9], 6.31 µM; in assay [10], 3.46 µM.
